Test results from ChEMBL document CHEMBL4138123, “Design, synthesis and biological evaluation of novel pyrazolochalcones as potential modulators of PI3K/Akt/mTOR pathway and inducers of apoptosis in breast cancer cells” (Eur J Med Chem, 2017).

Legend:
Assay type in all cases: functional
[1] = test system: HCT-116; experiment: Cytotoxicity against human HCT116 cells assessed as cell growth at 1 uM after 48 hrs by sulforhodamine B assay relative to control; conditions: HCT-116, 48 h, read-out: Activity
[2] = test system: HCT-15; experiment: Cytotoxicity against human HCT15 cells assessed as cell growth at 10 uM after 48 hrs by sulforhodamine B assay relative to control; conditions: HCT-15, 48 h, read-out: Activity
[3] = test system: NCI-H226; experiment: Cytotoxicity against human NCI-H226 cells assessed as growth inhibition after 48 hrs by sulforhodamine B assay; conditions: NCI-H226, 48 h
[4] = test system: ACHN; experiment: Cytotoxicity against human ACHN cells assessed as cell growth at 10 uM after 48 hrs by sulforhodamine B assay relative to control; conditions: read-out: Activity
[5] = test system: NCI-H522; experiment: Cytotoxicity against human NCI-H522 cells assessed as cell growth at 0.1 uM after 48 hrs by sulforhodamine B assay relative to control; conditions: NCI-H522, 48 h, read-out: Activity
[6] = test system: HT-29; experiment: Cytotoxicity against human HT-29 cells assessed as growth inhibition after 48 hrs by sulforhodamine B assay; conditions: HT-29, 48 h
[7] = test system: DU-145; experiment: Cytotoxicity against human DU145 cells assessed as cell growth at 1 uM after 48 hrs by sulforhodamine B assay relative to control; conditions: DU-145, 48 h, read-out: Activity
[8] = test system: ACHN; experiment: Cytotoxicity against human ACHN cells assessed as cell growth at 100 uM after 48 hrs by sulforhodamine B assay relative to control; conditions: read-out: Activity
[9] = test system: A498; experiment: Cytotoxicity against human A498 cells assessed as growth inhibition after 48 hrs by sulforhodamine B assay; conditions: A498, 48 h
[10] = test system: CCRF-CEM; experiment: Cytotoxicity against human CCRF-CEM cells assessed as cell growth at 0.1 uM after 48 hrs by sulforhodamine B assay relative to control; conditions: read-out: Activity
[11] = test system: HOP-62; experiment: Cytotoxicity against human HOP62 cells assessed as cell growth at 100 uM after 48 hrs by sulforhodamine B assay relative to control; conditions: HOP-62, 48 h, read-out: Activity
[12] = test system: NCI/ADR-RES; experiment: Cytotoxicity against human NCI/ADR-RES cells assessed as cell growth at 0.1 uM after 48 hrs by sulforhodamine B assay relative to control; conditions: read-out: Activity
[13] = test system: HOP-62; experiment: Cytotoxicity against human HOP62 cells assessed as growth inhibition after 48 hrs by sulforhodamine B assay; conditions: HOP-62, 48 h
[14] = test system: SF-539; experiment: Cytotoxicity against human SF539 cells assessed as cell growth at 0.01 uM after 48 hrs by sulforhodamine B assay relative to control; conditions: SF-539, 48 h, read-out: Activity
[15] = test system: OVCAR-4; experiment: Cytotoxicity against human OVCAR4 cells assessed as cell growth at 0.1 uM after 48 hrs by sulforhodamine B assay relative to control; conditions: OVCAR-4, 48 h, read-out: Activity
[16] = test system: NCI-H460; experiment: Cytotoxicity against human NCI-H460 cells assessed as cell growth at 100 uM after 48 hrs by sulforhodamine B assay relative to control; conditions: NCI-H460, 48 h, read-out: Activity
[17] = test system: SK-OV-3; experiment: Cytotoxicity against human SKOV3 cells assessed as growth inhibition after 48 hrs by sulforhodamine B assay; conditions: SK-OV-3, 48 h
[18] = test system: MDA-MB-231; experiment: Cytotoxicity against human MDA-MB-231 cells assessed as cell growth at 10 uM after 48 hrs by sulforhodamine B assay relative to control; conditions: MDA-MB-231, 48 h, read-out: Activity
[19] = test system: MOLT-4; experiment: Cytotoxicity against human MOLT4 cells assessed as growth inhibition after 48 hrs by sulforhodamine B assay; conditions: MOLT-4, 48 h
[20] = test system: NCI-H460; experiment: Cytotoxicity against human NCI-H460 cells assessed as cell growth at 10 uM after 48 hrs by sulforhodamine B assay relative to control; conditions: NCI-H460, 48 h, read-out: Activity
[21] = test system: HL-60(TB); experiment: Cytotoxicity against human HL-60(TB) cells assessed as cell growth at 100 uM after 48 hrs by sulforhodamine B assay relative to control; conditions: HL-60, 48 h, read-out: Activity
[22] = test system: IGROV-1; experiment: Cytotoxicity against human IGROV1 cells assessed as cell growth at 0.01 uM after 48 hrs by sulforhodamine B assay relative to control; conditions: IGROV-1, 48 h, read-out: Activity
[23] = test system: SK-MEL-28; experiment: Cytotoxicity against human SK-MEL-28 cells assessed as cell growth at 100 uM after 48 hrs by sulforhodamine B assay relative to control; conditions: SK-MEL-28, 48 h, read-out: Activity
[24] = test system: SF-539; experiment: Cytotoxicity against human SF539 cells assessed as cell growth at 10 uM after 48 hrs by sulforhodamine B assay relative to control; conditions: SF-539, 48 h, read-out: Activity
[25] = test system: KM12; experiment: Cytotoxicity against human KM12 cells assessed as cell growth at 0.1 uM after 48 hrs by sulforhodamine B assay relative to control; conditions: KM12, 48 h, read-out: Activity
[26] = test system: SN12C; experiment: Cytotoxicity against human SN12C cells assessed as cell growth at 0.01 uM after 48 hrs by sulforhodamine B assay relative to control; conditions: read-out: Activity
[27] = test system: MCF7; experiment: Cytotoxicity against human MCF7 cells assessed as growth inhibition after 48 hrs by sulforhodamine B assay; conditions: MCF7, 48 h
[28] = test system: HCC 2998; experiment: Cytotoxicity against human HCC2998 cells assessed as cell growth at 10 uM after 48 hrs by sulforhodamine B assay relative to control; conditions: HCC 2998, 48 h, read-out: Activity
[29] = test system: BT-549; experiment: Cytotoxicity against human BT549 cells assessed as cell growth at 1 uM after 48 hrs by sulforhodamine B assay relative to control; conditions: BT-549, 48 h, read-out: Activity
[30] = test system: DU-145; experiment: Cytotoxicity against human DU145 cells assessed as cell growth at 0.1 uM after 48 hrs by sulforhodamine B assay relative to control; conditions: DU-145, 48 h, read-out: Activity
[31] = test system: NCI-H23; experiment: Cytotoxicity against human NCI-H23 cells assessed as cell growth at 0.01 uM after 48 hrs by sulforhodamine B assay relative to control; conditions: NCI-H23, 48 h, read-out: Activity
[32] = test system: DU-145; experiment: Cytotoxicity against human DU145 cells assessed as cell growth at 100 uM after 48 hrs by sulforhodamine B assay relative to control; conditions: DU-145, 48 h, read-out: Activity
[33] = test system: HCC 2998; experiment: Cytotoxicity against human HCC2998 cells assessed as cell growth at 1 uM after 48 hrs by sulforhodamine B assay relative to control; conditions: HCC 2998, 48 h, read-out: Activity
[34] = test system: OVCAR-5; experiment: Cytotoxicity against human OVCAR5 cells assessed as growth inhibition after 48 hrs by sulforhodamine B assay; conditions: OVCAR-5, 48 h
[35] = test system: HL-60(TB); experiment: Cytotoxicity against human HL-60(TB) cells assessed as cell growth at 1 uM after 48 hrs by sulforhodamine B assay relative to control; conditions: HL-60, 48 h, read-out: Activity
[36] = test system: HOP-62; experiment: Cytotoxicity against human HOP62 cells assessed as cell growth at 0.01 uM after 48 hrs by sulforhodamine B assay relative to control; conditions: HOP-62, 48 h, read-out: Activity

For `COc1cc(-c2cc(/C=C/C(=O)c3ccc4c(c3)OCO4)[nH]n2)cc(OC)c1OC`, the growth at 1 µM [1] was 90%, the growth at 10 µM [2] was -13% and the LC50 (concentration killing 50% of cells) [3] was > 100 µM. The TGI [3] was > 100 µM, the growth at 10 µM [4] was -73% and the growth at 0.1 µM [5] was 92%. It also gave an LC50 [6] of 9.48 µM, a TGI [6] of 4.55 µM and a growth at 1 µM [7] of 90%. The growth at 100 µM [8] was -69%, the LC50 [9] was > 100 µM and the TGI [9] was 15.4 µM. For the same compound, the growth at 0.1 µM [10] was 90%, the growth at 100 µM [11] was -70% and the growth at 0.1 µM [12] was 95%. The LC50 [13] was 23.5 µM, the TGI [13] was 5.17 µM and the growth at 0.01 µM [14] was 98%. For the same compound, the growth at 0.1 µM [15] was 92%, the growth at 100 µM [16] was -34% and the LC50 [17] was > 100 µM. The TGI [17] was 26.1 µM, the growth at 10 µM [18] was 20% and the TGI [19] was 9.15 µM. The CC50 ([19]; read-out: LC50 (the source's name)) was > 100 µM, the growth at 10 µM [20] was -38% and the growth at 100 µM [21] was -36%. The growth at 0.01 µM [22] was 98%, the growth at 100 µM [23] was -16% and the growth at 10 µM [24] was -27%. The growth at 0.1 µM [25] was 95%, the growth at 0.01 µM [26] was 97% and the LC50 [27] was > 100 µM. It also gave a growth at 10 µM [28] of -87%, a growth at 1 µM [29] of 92% and a growth at 0.1 µM [30] of 102%. It also gave a growth at 0.01 µM [31] of 96%, a growth at 100 µM [32] of -15% and a growth at 1 µM [33] of 106%. For the same compound, the LC50 [34] was > 100 µM, the TGI [34] was 93.5 µM and the growth at 1 µM [35] was 86%. The growth at 0.01 µM [36] was 101%.
